Format in all cases: in vivo, Wistar rats
The subject of assay [1] is damage of gastric mucous membrane induced by aspirin. The assay is described as follows: Damage of gastric mucous membrane measured as stomach thickness in rats with stomach damage induced by aspirin. The settings on record: oral, once every day for 5 weeks; aspirin 50 mg/kg BW; salt 0.167 g/kg BW; glibenclamide 10 mg/kg BW; ocular micrometer. How it is done: In order to measure an effect on preventing stomach damage, five-week Wistar rats were purchased from Central Lab. Animal Inc., Seoul, Korea. A breeding room was set to be 20° C. of the temperature, 50 to 60% of relative humidity, and 12 hours of lighting cycle, and water and food were set to be freely taken. The test animals were accommodated for 2 weeks using a general feed prepared on the basis of AlN-93G, and then, the weights of the animals were measured to divide them into each of test groups (n=8). Since then, the test groups were a normal group (Con) injected with distilled water only, a control group (NaCl) injected with pure sodium chloride (NaCl, 0.167 g/kg BW) that was a main ingredient of salt only, and a heat-treated salt-treating group injected with heat-treated purple salt (0.167 g/kg BW), in which each of sample solutions was orally injected along with aspirin (50 mg/kg BW) once every day for 5 weeks. […] A degree of the damage of gastric mucous membrane of the heat-treated purple salt obtained in Example 2 was measured by measuring a stomach thickness. […] Since then, the stomach thicknesses were measured using an ocular micrometer.

The test system of assay [2] is stomach damage induced by aspirin. As to the kind of experiment: Effect on preventing stomach damage in rats with stomach damage induced by aspirin (microscopic observation of opened stomach). The settings on record: oral, once every day for 5 weeks; aspirin 50 mg/kg BW; salt 0.167 g/kg BW; glibenclamide 10 mg/kg BW abdominally 1 hour before. How it is done:
(§1) In order to measure an effect on preventing stomach damage, five-week Wistar rats were purchased from Central Lab. Animal Inc., Seoul, Korea. A breeding room was set to be 20° C. of the temperature, 50 to 60% of relative humidity, and 12 hours of lighting cycle, and water and food were set to be freely taken. The test animals were accommodated for 2 weeks using a general feed prepared on the basis of AlN-93G, and then, the weights of the animals were measured to divide them into each of test groups (n=8). Since then, the test groups were a normal group (Con) injected with distilled water only, a control group (NaCl) injected with pure sodium chloride (NaCl, 0.167 g/kg BW) that was a main ingredient of salt only, and a heat-treated salt-treating group injected with heat-treated purple salt (0.167 g/kg BW), in which each of sample solutions was orally injected along with aspirin (50 mg/kg BW) once every day for 5 weeks. In addition, glibenclamide (10 mg/kg BW) solution inhibiting KATP channel dissolved in 0.01 N NaOH including 4% glucose was abdominally injected 1 hour before orally injecting aspirin (50 mg/kg BW) and heat-treated salt (0.167 g/kg BW), and performed once every day for 5 weeks. The respective treating groups were fasted for 24 hours before sacrificing; sacrificed; and then, the stomach was removed.

For assay [3], the system named is gastric ulcer induced by aspirin. As to the kind of experiment: Gastric ulcer index in rats with stomach damage induced by aspirin (method of Dekanski et al.). The settings on record: oral, once every day for 5 weeks; aspirin 50 mg/kg BW; salt 0.167 g/kg BW; glibenclamide 10 mg/kg BW; n=8. How it is done: as §1, with “The respective treating groups were fasted for 24 hours before sacrificing; sacrificed; and then, the stomach was removed.” left out
An effect of the heat-treated purple salt obtained in Example 2 on suppressing gastric ulcer was measured.

Here are results for one compound from US9895409B2, “Remedy for gastritis and gastric ulcer” (priority 2011, dated 2018).

As for `CC(=O)Oc1ccccc1C(=O)O` [aspirin], the “stomach thickness (FIG. 4)” value in assay [1] is given as “very thin as compared with the normal group”. In addition, in assay [2], the “stomach damage (bleeding, inflammation, mucosa) observed with optical microscope (FIG. 2)” value is “severe damage along with gastric hemorrhage”. For the same compound, the “gastric ulcer index (FIG. 3)” value in assay [3] came out at 37.3±10.4.
